According to ChEMBL document CHEMBL1201862, “PubChem BioAssay data set” (2004):
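Compound exposure: 48 hours, 5 concentrations, 96-well plates. GI50 = concentration required for 50% inhibition of growth.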 Calls of active or inactive are those of the source. Cut-off read from the data, not from the text of the source: active = GI50 up to about 1.1 µM and inactive = higher.

Tests used:
Test in all cases: DTP human tumour cell line panel, 48 h
COLO 205 = tested on: COLO 205
HT-29 = tested on: HT-29
KM12 = tested on: KM12
LOX IMVI = tested on: LOX IMVI
MDA-MB-435 = tested on: MDA-MB-435
NCI-H226 = tested on: NCI-H226
OVCAR-4 = tested on: OVCAR-4
OVCAR-5 = tested on: OVCAR-5
RXF 393 = tested on: RXF 393
SF-295 = tested on: SF-295
SF-539 = tested on: SF-539
SK-MEL-5 = tested on: SK-MEL-5
SW-620 = tested on: SW-620
TK-10 = tested on: TK-10
U-251 = tested on: U-251
UACC-62 = tested on: UACC-62
DU-145 = tested on: DU-145
HCC 2998 = tested on: HCC 2998
SNB-75 = tested on: SNB-75
T47D = tested on: T47D

| SMILES | GI50 (COLO 205) | GI50 (HT-29) | GI50 (KM12) | GI50 (LOX IMVI) | GI50 (MDA-MB-435) | GI50 (NCI-H226) | GI50 (OVCAR-4) | GI50 (OVCAR-5) | GI50 (RXF 393) | GI50 (SF-295) | GI50 (SF-539) | GI50 (SK-MEL-5) | GI50 (SW-620) | GI50 (TK-10) | GI50 (U-251) | GI50 (UACC-62) | GI50 (DU-145) | GI50 (HCC 2998) | GI50 (SNB-75) | GI50 (T47D) |
| --- | --- | --- | --- | --- | --- | --- | --- | --- | --- | --- | --- | --- | --- | --- | --- | --- | --- | --- | --- | --- |
| C=C1CC[C@]2(C)[C@H](CC[C@@]34C[C@@H](CC[C@H]32)[C@@H](C(=O)O)C4)C1(C)C | 4.54 µM (inactive) | 5.35 µM (inactive) | > 12.5 µM (inactive) | > 12.5 µM (inactive) | > 12.5 µM (inactive) | > 12.5 µM (inactive) | > 12.5 µM (inactive) | > 12.5 µM (inactive) | > 12.5 µM (inactive) | 8.24 µM (inactive) | 6.19 µM (inactive) | 8.24 µM (inactive) | > 12.5 µM (inactive) | > 12.5 µM (inactive) | > 12.5 µM (inactive) | > 12.5 µM (inactive) | – | – | – | – |
| COc1cc(/C=C2\S/C(=N/Nc3nc(-c4ccc(Br)cc4)cs3)NC2=O)cc(OC)c1OC | 26.8 µM (inactive) | 18.4 µM (inactive) | 7.73 µM (inactive) | 9.29 µM (inactive) | 15.5 µM (inactive) | 4.09 µM (inactive) | 17.8 µM (inactive) | 18.2 µM (inactive) | 4.07 µM (inactive) | 12.4 µM (inactive) | 8.83 µM (inactive) | 5.02 µM (inactive) | 8.55 µM (inactive) | 12 µM (inactive) | 2.99 µM (inactive) | 11.1 µM (inactive) | 19.3 µM (inactive) | 16.3 µM (inactive) | 9.2 µM (inactive) | – |
| CCOC(=O)CC(=O)N(c1ccc(OC)cc1)C(C(=O)OC)c1ccccc1 (stereo not drawn) | > 100 µM (inactive) | > 100 µM (inactive) | > 100 µM (inactive) | > 100 µM (inactive) | > 100 µM (inactive) | – | – | > 100 µM (inactive) | – | > 100 µM (inactive) | > 100 µM (inactive) | > 100 µM (inactive) | > 100 µM (inactive) | > 100 µM (inactive) | – | > 100 µM (inactive) | > 100 µM (inactive) | – | 61 µM (inactive) | > 100 µM (inactive) |
| C=C(C)[C@@H]1CC[C@]2(COC(C)=O)CC[C@]3(C)[C@H](CC[C@@H]4[C@@]5(C)CC[C@H](OC(C)=O)C(C)(C)[C@@H]5CC[C@]43C)[C@@H]12 [BETULIN DIACETATE] | > 50 µM (inactive) | > 50 µM (inactive) | – | > 50 µM (inactive) | > 50 µM (inactive) | > 50 µM (inactive) | > 50 µM (inactive) | – | 0.0385 µM (active) | – | > 50 µM (inactive) | > 50 µM (inactive) | > 50 µM (inactive) | – | > 50 µM (inactive) | > 50 µM (inactive) | – | 0.857 µM (active) | > 50 µM (inactive) | – |
| NCCC(=O)N[C@@H](Cc1cc(O)c(O)c(SCC(NC(=O)CC[C@H](N)C(=O)O)C(=O)NCC(=O)O)c1)C(=O)O (stereo partly drawn) | > 50 µM (inactive) | > 50 µM (inactive) | > 50 µM (inactive) | – | > 50 µM (inactive) | > 50 µM (inactive) | > 50 µM (inactive) | > 50 µM (inactive) | > 50 µM (inactive) | > 50 µM (inactive) | – | – | > 50 µM (inactive) | > 50 µM (inactive) | > 50 µM (inactive) | > 50 µM (inactive) | > 50 µM (inactive) | > 50 µM (inactive) | > 50 µM (inactive) | – |
| CCOC(=O)C1(C)CCc2sc(N)c(C#N)c21 (stereo not drawn) | > 100 µM (inactive) | > 100 µM (inactive) | > 100 µM (inactive) | – | – | > 100 µM (inactive) | – | > 100 µM (inactive) | > 100 µM (inactive) | – | – | > 100 µM (inactive) | > 100 µM (inactive) | > 100 µM (inactive) | > 100 µM (inactive) | > 100 µM (inactive) | – | > 100 µM (inactive) | > 100 µM (inactive) | > 100 µM (inactive) |
| CCCCCCCCCCCCC/C=C(/COCC[N+](C)(C)C)OC(C)=O.CCCCCCCCCCCCCC/C(=C/OCC[N+](C)(C)C)OC(C)=O | 1.48 µM (inactive) | 0.356 µM (active) | 1.46 µM (inactive) | 0.377 µM (active) | 2.58 µM (inactive) | 1.57 µM (inactive) | 1.95 µM (inactive) | 2.44 µM (inactive) | 0.716 µM (active) | 0.92 µM (active) | 1.85 µM (inactive) | 2.54 µM (inactive) | 2.92 µM (inactive) | 1.48 µM (inactive) | 1.19 µM (inactive) | 1.74 µM (inactive) | 4.97 µM (inactive) | 4.04 µM (inactive) | 2.54 µM (inactive) | – |
| CNC(=O)c1nn[nH]c1Sc1c([N+](=O)[O-])ncn1C | > 100 µM (inactive) | > 100 µM (inactive) | > 100 µM (inactive) | > 100 µM (inactive) | > 100 µM (inactive) | – | > 100 µM (inactive) | > 100 µM (inactive) | > 100 µM (inactive) | > 100 µM (inactive) | > 100 µM (inactive) | > 100 µM (inactive) | > 100 µM (inactive) | > 100 µM (inactive) | > 100 µM (inactive) | > 100 µM (inactive) | > 100 µM (inactive) | > 100 µM (inactive) | – | > 100 µM (inactive) |
| O=C(Nc1ccccc1)OCc1nc2c([nH]1)C(=O)C=CC2=O | 1.9 µM (inactive) | 27.5 µM (inactive) | 15.6 µM (inactive) | 16.1 µM (inactive) | – | 18.7 µM (inactive) | 14.3 µM (inactive) | 22.2 µM (inactive) | 10.8 µM (inactive) | 18.6 µM (inactive) | > 100 µM (inactive) | 14.3 µM (inactive) | 2.62 µM (inactive) | 14 µM (inactive) | 12.5 µM (inactive) | 19.7 µM (inactive) | – | 16.5 µM (inactive) | 19.3 µM (inactive) | – |
| COc1cc(/C=C2\NC(=O)C3Cc4c(OC)c(C)c(OC)c(OC)c4C2N3C)c(OC)c(C)c1OC (stereo not drawn) | > 100 µM (inactive) | > 100 µM (inactive) | > 100 µM (inactive) | > 100 µM (inactive) | – | > 100 µM (inactive) | > 100 µM (inactive) | > 100 µM (inactive) | 85.3 µM (inactive) | > 100 µM (inactive) | > 100 µM (inactive) | > 100 µM (inactive) | > 10 µM (inactive) | > 100 µM (inactive) | > 100 µM (inactive) | > 100 µM (inactive) | – | > 100 µM (inactive) | > 100 µM (inactive) | – |
| O=C(O)c1ccccc1NC(=S)c1ccccc1 | 39.1 µM (inactive) | 37.8 µM (inactive) | 50.2 µM (inactive) | 30.5 µM (inactive) | 52.8 µM (inactive) | – | 0.0592 µM (active) | > 100 µM (inactive) | 51.9 µM (inactive) | 35.2 µM (inactive) | 44.4 µM (inactive) | 38.5 µM (inactive) | 46.5 µM (inactive) | 35.8 µM (inactive) | 47.8 µM (inactive) | 30.3 µM (inactive) | > 100 µM (inactive) | < 0.01 µM (active) | – | 34.2 µM (inactive) |
| Cc1nc(O)c2c3c(sc2n1)CCCC3 | > 100 µM (inactive) | 54.7 µM (inactive) | > 100 µM (inactive) | 72.4 µM (inactive) | > 100 µM (inactive) | > 100 µM (inactive) | > 100 µM (inactive) | 60.7 µM (inactive) | > 100 µM (inactive) | > 100 µM (inactive) | 56.8 µM (inactive) | > 100 µM (inactive) | > 100 µM (inactive) | > 100 µM (inactive) | 66.2 µM (inactive) | 58.2 µM (inactive) | > 100 µM (inactive) | – | > 100 µM (inactive) | > 100 µM (inactive) |
| O=C(O)C1C2CCC(O2)C1C(=O)NCc1cccnc1 (stereo not drawn) | > 100 µM (inactive) | > 100 µM (inactive) | > 100 µM (inactive) | > 100 µM (inactive) | > 100 µM (inactive) | – | > 100 µM (inactive) | > 100 µM (inactive) | > 100 µM (inactive) | > 100 µM (inactive) | > 100 µM (inactive) | > 100 µM (inactive) | > 100 µM (inactive) | > 100 µM (inactive) | > 100 µM (inactive) | > 100 µM (inactive) | > 100 µM (inactive) | – | > 100 µM (inactive) | > 100 µM (inactive) |
| CC(=O)c1c(O)cc(O)c(-c2c(C)cc(O)c3c2C(=O)c2cccc(O)c2C3=O)c1O | – | 17.1 µM (inactive) | 16.2 µM (inactive) | 12.8 µM (inactive) | 16.7 µM (inactive) | 18.3 µM (inactive) | 10.8 µM (inactive) | 17.3 µM (inactive) | – | 13.1 µM (inactive) | 15.3 µM (inactive) | – | 18.7 µM (inactive) | 15.8 µM (inactive) | 14 µM (inactive) | 14.5 µM (inactive) | 16.3 µM (inactive) | – | 15.2 µM (inactive) | 4.95 µM (inactive) |
| CN(/N=C/c1ccccc1O)c1ccc2ccccc2n1 | 56.1 µM (inactive) | 29.8 µM (inactive) | 21.3 µM (inactive) | 30.8 µM (inactive) | 44.4 µM (inactive) | 78 µM (inactive) | 20.3 µM (inactive) | 41.2 µM (inactive) | 30.8 µM (inactive) | 16.2 µM (inactive) | 22.6 µM (inactive) | 32.5 µM (inactive) | 42.3 µM (inactive) | 22.2 µM (inactive) | 16.3 µM (inactive) | 35.2 µM (inactive) | 20.1 µM (inactive) | – | – | 13.5 µM (inactive) |
| CCOC(=O)c1c(NS(=O)(=O)c2ccccc2)sc2c1CCCC2 | 44.4 µM (inactive) | 39.4 µM (inactive) | 22.1 µM (inactive) | – | – | > 100 µM (inactive) | – | > 100 µM (inactive) | > 100 µM (inactive) | 43.6 µM (inactive) | > 100 µM (inactive) | 74.5 µM (inactive) | – | 62.8 µM (inactive) | – | 76 µM (inactive) | 89.5 µM (inactive) | – | > 100 µM (inactive) | 47.8 µM (inactive) |
